For one data set, the system named is BW25113 E. coli strain. Put plainly: Minimum inhibitory concentration (MIC) assay of furfural in MOPS minimal media. In kind it is cell-based. The following applies: Escherichia coli, n=3, read-out: MIC (first concentration of furfural that inhibited bacterial growth). On the procedure: In one exemplary method, assays were performed to determine minimum inhibitory concentration (MIC) of ethanol, furfural and acetate for BW25113 and MG1655 E. coli strains. FIG. 16 represents a histogram plot of illustrating tolerance differences of furfural in BW25113 and MG1655 E. coli strains. Cells from each strain were inoculated from the same optical density into a total of 100 μL of varying furfural concentrations in a minimal media, for example using MOPS. Cell growth in the first 24 hr or 48 hr in the presence of furfural was monitored. The left bar in each pair for each indicated strain represents a first concentration of furfural that inhibited bacterial growth after 24 hr. The right bar for each strain represents the first concentration that inhibited growth after 48 hr. The MIC reads were the average of triplicates (n=3), and error bars represent standard deviation. […] Thus, this difference in strains led to further investigation into the difference between these strains. ArecA signifies strains where the gene has been knocked out as previously described.

In a further data set the test system is MG1655 E. coli strain. The description is as above. The class given is cell-based. As to conditions: Escherichia coli. As for the experimental part: (§1) In one exemplary method, assays were performed to determine minimum inhibitory concentration (MIC) of ethanol, furfural and acetate for BW25113 and MG1655 E. coli strains. […] Cells from each strain were inoculated from the same optical density into a total of 100 μL of varying furfural concentrations in a minimal media, for example using MOPS. Cell growth in the first 24 hr or 48 hr in the presence of furfural was monitored. The left bar in each pair for each indicated strain represents a first concentration of furfural that inhibited bacterial growth after 24 hr. The right bar for each strain represents the first concentration that inhibited growth after 48 hr. The MIC reads were the average of triplicates (n=3), and error bars represent standard deviation. […] ArecA signifies strains where the gene has been knocked out as previously described.
(§2) The minimum inhibitory concentration (MIC) of furfural of MG1655 and BW25113 with or without lpcA overexpression was determined. MIC assays were performed as described in Example 13. […] MIC reads were average of triplicates (n=3), and error bars represent standard deviation. The SDS-PAGE gel image in FIG. 17C represents LPS level of the cells indicated above the gel image (duplicate of each cell sample was presented). LPS was extracted from the indicated cells grown to exponential phase. Loading of LPS the SDS-PAGE gel was normalized to the cell number. The gel was stained for visualization after desired separation of LPS was obtained.

The next data set deals with BW25113 ArecA pLPCA. Description: MIC assay of furfural, lpcA overexpression strain. The class given is cell-based, E. coli. The following applies: Escherichia coli. As for the experimental part:
as §1, §2
In another exemplary method, MIC was determined when MG1655 and BW25113 strains were fed with various carbon sources. MIC assays were performed in the presence of furfural. Glucose, Xylose or Ribose was supplemented with a minimal media for cell growth. […] MICs were read at the indicated time (24 hr or 48 hr), the average of triplicates was presented and error bars represent standard deviation. ‘Blank vector’ refers to the pBTL-1 vector, which served as the control. […]

Data set [1] relates to BW25113 araC::FRT-kan clone (JW0063). Put plainly: Cell growth (OD600) in MOPS minimal media with furfural, araC knockout. In kind it is cell-based, E. coli. As to conditions: furfural 1 g/L. As for the experimental part: In other exemplary methods, tolerance and expression of LPS was restored in a microorganism. FIG. 19 represents an example of restoration of tolerance and LPS expression in BW25113 ArecA clone. The indicated cells were grown in MOPS minimal media supplemented with glucose as a carbon source. Furfural was added to the media at the concentration of 1 g/L. Arabinose was added at 10 mM where indicated to gauge effect of AraC binding. The BW25113 araC::FRT-kan clone corresponds to JW0063, a BW25113 araC knockout mutant ordered from the Keio Collection directly. pBTL-1 represented the blank vector, and pLPCA referred to lpcA gene overexpression. Consistent with the Examples above, overexpression of lpcA gene increased cell growth (OD600 of 0.1 vs. 0.05) in the presence of furfural. Addition of Arabinose to the lpcA gene overexpression cells could further enhance the effect (OD600 of 0.3). […] To analyze the LPS level in the cells indicated in FIG. 19, LPS are extracted from the cells grown to exponential phase. Loading of LPS for the protein gel is normalized to the cell number. The gel is stained to visualize LPS protein bands after desired separation is obtained.
BW25113, MG1655, and derivatives were used where indicated. JW0063, an araC mutant of BW25113 was obtained from the Coli Genetic Stock Center (Yale). Overnight bacterial cultures were grown in Luria-Bertani medium with shaking. […]

Data set [2] deals with pBTL-1 Control (blank vector) culture. Put plainly: Aerobic growth (specific growth, final OD600) in MOPS minimal media with inhibitor, control. The following applies: aerobic growth in 1 g/L furfural. The class given is cell-based, E. coli. As for the experimental part:
Certain experiments described herein were performed in E. coli BW25113 recA-, with the kanamycin resistance gene removed.
Cultures were grown in 10 ml MOPS minimal media, 100 μg carbenicillin/ml, and either 1 g furfural/1 supplemented, 2 g HMF/1, or 4 g acetate/1, in 15 ml conical tubes at 37° C. The optical density of 1 ml culture was measured with a spectrophotometer at 600 nm. A natural log transformation of the data was then calculated and then a regression line was fit to the data to calculate specific growth, which is […] to the culture doubling time. The blank vector, pBTL-1, served as the control. The lpcA gene was cloned into the pBTL-1 using standard cloning techniques and primers designed to amplify the gene from template DNA.

The conditions of data set [3]: furfural vs. furfuryl alcohol; cited from earlier work.

≈ marks a conversion by molar mass, not a printed value. Read-outs that look alike come from different tables or passages of the source.

Turning to `O=Cc1ccco1` [furfural, furan-2-carbaldehyde], the MIC was 500 µg/mL (≈ 5.2 mM) with BW25113 E. coli strain (BW25113, after 24 hr); 1200 µg/mL (≈ 12.5 mM) in the data set on BW25113 E. coli strain (BW25113, after 48 hr); 1250 µg/mL in the data set on MG1655 E. coli strain (MG1655, read-out: MIC of furfural); 1200 µg/mL (≈ 12.5 mM) with MG1655 E. coli strain (MG1655, after 24 hr, n=3, read-out: MIC (first concentration of furfural that inhibited bacterial growth)); 1800 µg/mL (≈ 18.7 mM) in the data set on MG1655 E. coli strain (MG1655, after 48 hr, n=3, read-out: MIC (first concentration of furfural that inhibited bacterial growth)); 1250 µg/mL in the data set with BW25113 ArecA pLPCA (BW25113, read-out: MIC of furfural, BW25113 ArecA pLPCA, FIG. 17C). The MIC was 1250 µg/mL in the data set on BW25113 ArecA pLPCA (BW25113, read-out: MIC of furfural, pLPCA, glucose as carbon source, FIG. 18B) and 1000 µg/mL in the data set with BW25113 ArecA pLPCA (BW25113, read-out: MIC of furfural, pLPCA, xylose as carbon source, FIG. 18B). Also, the “OD600 (cell growth in the presence of furfural)” value is listed as 0.5 in data set [1] (araC::FRT-kan without lpcA overexpression, no Arabinose) and 1.0 in data set [1] (araC::FRT-kan, Arabinose 10 mM). In addition, in data set [2], the “Final OD600 (24 hr)” value was 0.586. The “Specific Growth” value in data set [2] (n=3) was 0.111 h⁻¹. For the same compound, the “toxicity on a concentration basis” value in data set [3] is reported as around 2 g/L.

The record behind these values is patent US20130217132A1, “METHODS, COMPOSITIONS AND USE FOR ENHANCING CHEMICAL TOLERANCE BY MICROORGANISMS” (priority 2009, published 2013).
